Reference: the NIST ThermoML archive (doi:10.1016/j.jct.2016.04.003)

What was measured:
[1] = refractive index (Na D-line) (dimensionless); settings: 99 kPa, Liquid, Standard Abbe refractometry
[2] = for surface tension liquid-gas: Drop volume; for viscosity: Capillary tube (Ostwald / Ubbelohde) method
[3] = xn = mol fraction of the nth substance listed; settings: x2 = 0; for surface tension liquid-gas: Drop volume; for viscosity / speed of sound / mass density: 99 kPa, Liquid; for viscosity: Capillary tube (Ostwald / Ubbelohde) method; for speed of sound: Frequency=3 MHz, Sing-around technique in a fixed-path interferometer; for mass density: Vibrating tube method
[4] = refractive index (Na D-line) (dimensionless); xn = mol fraction of the nth substance listed; settings: 99 kPa, Liquid, Standard Abbe refractometry, x2 = 0

CCCC[n+]1ccccc1.F[B-](F)(F)F [1-butylpyridinium tetrafluoroborate]
Settings	refractive index
[1], 293.15 K	1.44719

O [water]
Settings	refractive index, 293.15 K	refractive index, 303.15 K	refractive index, 313.15 K	refractive index, 323.15 K	surface tension liquid-gas, 293.15 K [mN/m]	surface tension liquid-gas, 303.15 K [mN/m]	surface tension liquid-gas, 313.15 K [mN/m]	surface tension liquid-gas, 323.15 K [mN/m]
[1]	1.33297	1.33196	1.33061	1.32904	–	–	–	–
[2]	–	–	–	–	72.7	71.1	69.6	67.8

[2], 99 kPa, Liquid
Settings	viscosity [mPa·s]
293.15 K	1.002
303.15 K	0.797
313.15 K	0.653
323.15 K	0.547

Settings	speed of sound [m/s]
[2], 313.15 K, 99 kPa, Liquid, Frequency=3 MHz, Sing-around technique in a fixed-path interferometer	1529.2

Settings	mass density [kg/m3]
[2], 323.15 K, 99 kPa, Liquid, Vibrating tube method	988.04

O [water] + CCCC[n+]1ccccc1.F[B-](F)(F)F
Settings	mass density, [3] [kg/m3]	refractive index, [4]	speed of sound, [3] [m/s]	surface tension liquid-gas, [3] [mN/m]	viscosity, [3] [mPa·s]
293.15 K	–	1.33297	–	72.7	1.002
303.15 K	–	1.33196	–	71.1	0.797
313.15 K	–	1.33061	1529.2	69.6	0.653
323.15 K	988.04	1.32904	–	67.8	0.547

O [water] + CCC[n+]1ccccc1.F[B-](F)(F)F
Settings	mass density, [3] [kg/m3]	refractive index, [4]	speed of sound, [3] [m/s]	surface tension liquid-gas, [3] [mN/m]	viscosity, [3] [mPa·s]
293.15 K	–	1.33297	–	72.7	1.002
303.15 K	–	1.33196	–	71.1	0.797
313.15 K	–	1.33061	1529.2	69.6	0.653
323.15 K	988.04	1.32904	–	67.8	0.547
